From US20090298805A1, “TOPICAL PYRITHIONE COMPOSITIONS AND METHODS FOR TREATMENT OF NAIL FUNGUS” (priority 2008, published 2009)

Assays:
[1] = system: Trichophyton rubrum; assay: Microbiology efficacy test, formulations applied to paper disks, zone of inhibition; format: cell-based; settings: T. rubrum; 50 microliters on 1/2 inch paper disk, air dried; Potato Dextrose Agar; average results
Excerpt: (§1) Each test formulation (50 microliters) was pipetted onto sterile ½ inch paper disks and was allowed to air dry. Spore suspensions of Trichophyton mentagrophytes and Trichophyton rubrum, were made using standard microbiological techniques. The resulting suspensions contained approximately 10,000,000 spores per milliliter. Sterile swabs were used to distribute the spore suspensions over the surface of Potato Dextrose Agar plates and one sample disk was placed in the center of each plate.

[2] = system: Trichophyton mentagrophytes; assay: as above; format: cell-based; settings: T. mentagrophytes; 50 microliters on 1/2 inch paper disk, air dried; Potato Dextrose Agar; average results
Excerpt: as §1

[3] = system: T. mentagrophytes; assay: Formulations applied to artificial nail (IMS VITRO-NAILS), zone of inhibition; format: cell-based, Trichophyton mentagrophytes
Excerpt: Each test formulation (50 microliters) was pipetted onto sterile ½ inch paper disks and was allowed to air dry. Spore suspensions of Trichophyton mentagrophytes and Trichophyton rubrum, were made using standard microbiological techniques. The resulting suspensions contained approximately 10,000,000 spores per milliliter. Sterile swabs were used to distribute the spore suspensions over the surface of Potato Dextrose Agar plates and one sample disk was placed in the center of each plate. As an additional test, a synthetic nail substrate, IMS VITRO-NAILS, was used to simulate permeation of the active through a human nail. This material is reported to have the wetting properties, thickness and flexibility of human nails. This experiment was conducted in the same manner as first experiment above, except that the formulations were pipetted onto ¾-1 inch squares of VITRO-NAILS and either allowed to dry for 2 days before testing or place directly on the inoculated agar plates while wet.

## Cc1cc(C2CCCCC2)n(O)c(=O)c1 [Ciclopirox]
[1]
  Zone of Inhibition: 19.0 mm
[2]
  Zone of Inhibition: 16.0 mm
[3]; allowed to dry for 2 days before testing
  Zone of Inhibition, Tested Dry: 8.75 mm
[3]; placed directly on inoculated agar plates while wet
  Zone of Inhibition, Tested Wet: 9 mm
